From patent publication US11919902B2, “Aryl-bipyridine amine derivatives as phosphatidylinositol phosphate kinase inhibitors” (HiberCell, Inc., priority 2017, dated 2024)

How the values were obtained:
[1] = molecular target: T1, PIP4K2A (full length protein, SignalChem) (Homo sapiens, UniProt P48426); assay: Kinase Assay PIP4K2 A (Sprint); ADP-Glo biochemical assay; conditions: Table 2; compounds listed under IC50 range headings
T1 construct: 4 nM PIP4K2A (full length protein, SignalChem); purchased SignalChem
T1 sequence (P48426 1-406): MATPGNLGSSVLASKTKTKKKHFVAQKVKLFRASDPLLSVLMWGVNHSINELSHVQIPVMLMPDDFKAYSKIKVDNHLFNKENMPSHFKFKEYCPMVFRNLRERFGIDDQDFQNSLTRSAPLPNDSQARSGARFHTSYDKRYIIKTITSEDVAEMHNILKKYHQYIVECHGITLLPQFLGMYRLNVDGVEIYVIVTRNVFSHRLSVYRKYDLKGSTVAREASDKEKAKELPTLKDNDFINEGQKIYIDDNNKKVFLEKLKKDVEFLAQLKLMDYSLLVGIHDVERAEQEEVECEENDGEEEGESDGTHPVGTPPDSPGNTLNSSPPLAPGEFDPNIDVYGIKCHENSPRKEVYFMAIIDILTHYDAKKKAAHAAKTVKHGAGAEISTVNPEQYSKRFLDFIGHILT
Outline: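 ADP-Glo luminescence detected ADP after a 1 h RT reaction started with 60 μM ATP solution. Before that, full-length PIP4K2A (4 nM in mix) with 100 μM PI(5)P diC8 was pre-incubated 15 min with compounds in MOPS buffer pH 7.2, 25 mM MgCl2, 0.005% Tween 20. IC50 derived from % inhibition relative to DMSO over 10 three-fold concentrations.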

GST tagged PIP4KtypeIIA = molecular target: T2, GST tagged PIP4KtypeIIA (Homo sapiens, UniProt P48426); assay: ADP-glo kinase assay PIP4K 2A (PIP4KtypeIIA inhibition assay); type: biochemical; conditions: Table 3; compounds listed under IC50 range headings; 10 uM ATP, 0.5 nM PIP4KIIA
T2 construct: made in house; host or cells: E. coli
T2 sequence (P48426 1-406): T1 sequence (P48426 1-406)
Outline: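 Read-out was ADP-Glo luminescence converted to μM ADP, with IC50 plotted as % of no-inhibitor activity against log concentration. Reactions contained 10 μM ATP, 80 μM PI5P with DOPE carrier, and 0.5 nM GST-tagged PIP4KIIA (E. coli-expressed) in pH 7.3 HEPES/MgCl2 buffer with 5% DMSO. Enzyme and compound (≤4.8 μM) were preincubated 1 h at 27 °C before the 1 h reaction.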

GST tagged PIP4KtypeIIB = molecular target: T3, GST tagged PIP4KtypeIIB (Homo sapiens, UniProt P78356); assay: Trans-FI P kinase assay PIP4K2B (PIP4KtypeIIB inhibition assay); type: biochemical; conditions: Table 4; compounds listed under IC50 range headings; 100 uM GTP, 5 nM PIP4KIIB; read-out: Trans-FI P kinase assays: PIP4K2B IC50
T3 construct: made in house; host or cells: E. coli
T3 sequence (P78356 1-416): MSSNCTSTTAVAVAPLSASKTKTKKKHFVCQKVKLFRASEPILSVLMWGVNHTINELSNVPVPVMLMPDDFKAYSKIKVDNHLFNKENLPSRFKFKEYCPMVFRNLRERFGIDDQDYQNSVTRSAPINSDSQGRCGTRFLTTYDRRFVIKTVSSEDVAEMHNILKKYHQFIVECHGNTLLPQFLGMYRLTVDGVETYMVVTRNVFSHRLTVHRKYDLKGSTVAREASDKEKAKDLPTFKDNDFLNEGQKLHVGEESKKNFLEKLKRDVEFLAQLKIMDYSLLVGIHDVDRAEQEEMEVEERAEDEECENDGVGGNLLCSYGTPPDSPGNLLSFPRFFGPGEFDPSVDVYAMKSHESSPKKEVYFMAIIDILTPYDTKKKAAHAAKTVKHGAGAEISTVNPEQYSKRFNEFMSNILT
Outline: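 Transcreener FI fluorescence, converted to GDP by calibration, tracked product from 5 nM E. coli-expressed GST-PIP4KIIB acting on 80 uM PI5P (DOPE carrier) with 100 uM GTP. Compound (top 4.8 uM final, 5% DMSO) was preincubated 1 h at 27 C before the 2 h reaction; IC50 fitted from residual activity.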

Row | SMILES | IC50 [1] [nM] | IC50 (GST tagged PIP4KtypeIIA) [nM] | IC50 (GST tagged PIP4KtypeIIB) [nM]
1 | CN(C)C(=O)c1ccc(-c2cncc(-c3ccnc4c3ccn4C)c2)cc1 [Example 5, N,N-dimethyl-4-(5-(1-methyl-1H-pyrrolo[2,3-b]pyridin-4-yl)pyridin-3-yl)benzamide] | 100 to 1000 | 2500 to 5000 | 1000 to 2500
2 | CN(C)C(=O)c1ccc(-c2cncc(-c3cnc4c(ccn4C)c3)c2)cc1 [Example 6, N,N-dimethyl-4-(5-(1-methyl-1H-pyrrolo[2,3-b]pyridin-5-yl)pyridin-3-yl)benzamide] | 1000 to 2500 | > 5000 | > 5000
3 | CN(C)C(=O)c1ccc(-c2cncc(-c3ccnc4ccncc34)c2)cc1 [Example 7, 4-(5-(1,6-naphthyridin-4-yl)pyridin-3-yl)-N,N-dimethylbenzamide] | 2500 to 5000 | > 5000 | > 5000
4 | CN(C)C(=O)c1ccc(-c2cncc(-c3ccnc(C(=O)N(C)C)c3)c2)cc1 [Example 9, 5-(4-(dimethylcarbamoyl)phenyl)-N,N-dimethyl-[3,4′-bipyridine]-2′-carboxamide] | < 5000 | > 5000 | > 5000
5 | CN(C)C(=O)c1ccc(-c2cncc(-c3c[nH]c4ncccc34)c2)cc1 [Example 10, 4-(5-(1H-pyrrolo[2,3-b]pyridin-3-yl)pyridin-3-yl)-N,N-dimethylbenzamide] | 100 to 1000 | 100 to 1000 | 100 to 1000
6 | Cc1[nH]c2ncccc2c1-c1cncc(-c2ccc(C(=O)N(C)C)cc2)c1 [Example 11, N,N-dimethyl-4-(5-(2-methyl-1H-pyrrolo[2,3-b]pyridin-3-yl)pyridin-3-yl)benzamide] | 100 to 1000 | 100 to 1000 | 100 to 1000
7 | CN(C)C(=O)c1ccc(-c2cncc(-c3c[nH]c4ncc(Cl)cc34)c2)cc1 [Example 12, 4-(5-(5-chloro-1H-pyrrolo[2,3-b]pyridin-3-yl)pyridin-3-yl)-N,N-dimethylbenzamide] | 5 to 100 | 100 to 1000 | 100 to 1000
8 | CNC(=O)c1cc2c(-c3cncc(-c4ccc(C(=O)N(C)C)cc4)c3)ccnc2n1C [Example 13, 4-(5-(4-(dimethylcarbamoyl)phenyl)pyridin-3-yl)-N,1-dimethyl-1H-pyrrolo[2,3-b]pyridine-2-carboxamide] | 1000 to 2500 | 2500 to 5000 | 1000 to 2500
9 | CNC(=O)c1cc2c(-c3cncc(-c4ccc(C(=O)N(C)C)cc4)c3)ccnc2o1 [Example 14, 4-(5-(4-(dimethylcarbamoyl)phenyl)pyridin-3-yl)-N-methylfuro[2,3-b]pyridine-2-carboxamide] | 100 to 1000 | 100 to 1000 | 100 to 1000
10 | CC(O)c1cnc2[nH]cc(-c3cncc(-c4ccc(C(=O)N(C)C)cc4)c3)c2c1 (stereo not drawn) [Example 15, 4-(5-(5-(1-hydroxyethyl)-1H-pyrrolo[2,3-b]pyridin-3-yl)pyridin-3-yl)-N,N-dimethylbenzamide] | 5 to 100 | 100 to 1000 | 100 to 1000
11 | CN(C)C(=O)c1ccc(-c2cc(-c3ccnc4ccccc34)cnc2N)nc1 [Example 20, 2′-amino-N,N-dimethyl-5′-(quinolin-4-yl)-[2,3′-bipyridine]-5-carboxamide] | 100 to 1000 | 1000 to 2500 | 100 to 1000
12 | CN(C)C(=O)c1ccc(-c2cc(-c3ccnc4[nH]ccc34)cnc2N)nc1 [Example 21, 2′-amino-N,N-dimethyl-5′-(1H-pyrrolo[2,3-b]pyridin-4-yl)-[2,3′-bipyridine]-5-carboxamide] | 100 to 1000 | 100 to 1000 | 100 to 1000
13 | Nc1ncc(Br)cc1-c1ccc(N2CCCC2=O)cn1 [Example 22, 1-(2′-amino-5′-bromo-[2,3′-bipyridin]-5-yl)pyrrolidin-2-one] | < 5000 | > 5000 | > 5000
14 | Nc1ncc(-c2csc3ncccc23)cc1-c1ccc(N2CCCC2=O)cn1 [Example 23, 1-(2′-amino-5′-(thieno[2,3-b]pyridin-3-yl)-[2,3′-bipyridin]-5-yl)pyrrolidin-2-one] | 5 to 100 | 100 to 1000 | 100 to 1000
15 | Nc1ncc(-c2cccc3ncsc23)cc1-c1ccc(N2CCCC2=O)cn1 [Example 24, 1-(2′-amino-5′-(benzo[d]thiazol-7-yl)-[2,3′-bipyridin]-5-yl)pyrrolidin-2-one] | 100 to 1000 | 1000 to 2500 | 1000 to 2500
16 | Nc1ncc(-c2cccc3nccn23)cc1-c1ccc(N2CCCC2=O)cn1 [Example 25, 1-(2′-amino-5′-(imidazo[1,2-a]pyridin-5-yl)-[2,3′-bipyridin]-5-yl)pyrrolidin-2-one] | 1000 to 2500 | 2500 to 5000 | > 5000
17 | Nc1ncc(-c2c[nH]c3ncc(Cl)cc23)cc1-c1ccc(N2CCCC2=O)cn1 [Example 26, 1-(2′-amino-5′-(5-chloro-1H-pyrrolo[2,3-b]pyridin-3-yl)-[2,3′-bipyridin]-5-yl)pyrrolidin-2-one] | 5 to 100 | 10 to 100 | 100 to 1000
18 | O=C1CCCN1c1ccc(-c2cncc(-c3c[nH]c4ncc(Cl)cc34)c2)cc1 [Example 27, 1-(4-(5-(5-chloro-1H-pyrrolo[2,3-b]pyridin-3-yl)pyridin-3-yl)phenyl)pyrrolidin-2-one] | 5 to 100 | 100 to 1000 | 100 to 1000
19 | O=C1CCCN1c1ccc(-c2cncc(-c3c[nH]c4ncccc34)c2)cc1 [Example 28, 1-(4-(5-(1H-pyrrolo[2,3-b]pyridin-3-yl)pyridin-3-yl)phenyl)pyrrolidin-2-one] | 5 to 100 | 100 to 1000 | 100 to 1000
20 | O=C1CCCN1c1ccc(-c2cncc(-c3c[nH]c4ncncc34)c2)cc1 [Example 30, 1-(4-(5-(7H-pyrrolo[2,3-d]pyrimidin-5-yl)pyridin-3-yl)phenyl)pyrrolidin-2-one] | 5 to 100 | 100 to 1000 | 100 to 1000
21 | Cc1cnc2[nH]cc(-c3cncc(-c4ccc(N5CCCC5=O)cc4)c3)c2c1 [Example 31, 1-(4-(5-(5-methyl-1H-pyrrolo[2,3-b]pyridin-3-yl)pyridin-3-yl)phenyl)pyrrolidin-2-one] | 5 to 100 | 10 to 100 | 100 to 1000
22 | Cn1ccc(-c2cncc(-c3ccc(N4CCCC4=O)cc3)c2)cc1=O [Example 33, 1′-methyl-5-(4-(2-oxopyrrolidin-1-yl)phenyl)-[3,4′-bipyridin]-2′(1′H)-one] | < 5000 | > 5000 | > 5000
23 | COc1cnc2[nH]ccc2c1-c1cncc(-c2ccc(N3CCCC3=O)cc2)c1 [Example 34, 1-(4-(5-(5-methoxy-1H-pyrrolo[2,3-b]pyridin-4-yl)pyridin-3-yl)phenyl)pyrrolidin-2-one] | 5 to 100 | 100 to 1000 | 100 to 1000
24 | Cc1cnc2[nH]ccc2c1-c1cncc(-c2ccc(N3CCCC3=O)cc2)c1 [Example 35, 1-(4-(5-(5-methyl-1H-pyrrolo[2,3-b]pyridin-4-yl)pyridin-3-yl)phenyl)pyrrolidin-2-one] | 100 to 1000 | 1000 to 2500 | 100 to 1000
25 | O=C1CCCN1c1ccc(-c2cncc(-c3ccc(=O)[nH]c3)c2)cc1 [Example 36, 5′-(4-(2-oxopyrrolidin-1-yl)phenyl)-[3,3′-bipyridin]-6(1H)-one] | 1000 to 2500 | > 5000 | 2500 to 5000
26 | Cn1cc(-c2cncc(-c3ccc(N4CCCC4=O)cc3)c2)ccc1=O [Example 37, 1-methyl-5′-(4-(2-oxopyrrolidin-1-yl)phenyl)-[3,3′-bipyridin]-6(1H)-one] | 2500 to 5000 | > 5000 | > 5000
